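Following 48 hours of exposure in 96-well plates, responses at five concentrations were used to interpolate endpoints linearly. Here, GI50 denotes the concentration required for 50% inhibition of growth.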 The source made the active and inactive calls. No stated cut-off is given here; in the data, active = GI50 up to about 1.1 µM and inactive = higher.
Legend:
Assay in all cases: inhibition of tumour cell growth, NCI panel, 48 h
RPMI-8226 = tested on: RPMI-8226
A498 = tested on: A498
SK-MEL-2 = tested on: SK-MEL-2
A549 = tested on: A549
SNB-75 = tested on: SNB-75
KM-20L2 = tested on: KM-20L2
TK-10 = tested on: TK-10
SNB-19 = tested on: SNB-19
ACHN = tested on: ACHN
CAKI-1 = tested on: CAKI-1
IGROV-1 = tested on: IGROV-1
SNB-78 = tested on: SNB-78
NCI-H23 = tested on: NCI-H23
786-0 = tested on: 786-0
NCI-H226 = tested on: NCI-H226
UO-31 = tested on: UO-31
SK-MEL-5 = tested on: SK-MEL-5
M14 = tested on: M14

Measured: GI50

CCS[C@H]1NC(=O)C1[C@H](C)O[Si](C)(C)C(C)(C)C (stereo partly specified)
inactive: RPMI-8226 31.6 µM | A498 > 100 µM | SK-MEL-2 > 100 µM | A549 81.3 µM | SNB-75 > 100 µM | KM-20L2 > 100 µM | TK-10 > 100 µM | SNB-19 > 100 µM | ACHN > 100 µM | CAKI-1 74 µM | IGROV-1 > 100 µM | SNB-78 > 100 µM | NCI-H23 > 100 µM | 786-0 > 100 µM

NC1CCCCC1.O=P(O)(O)C1(P(=O)(O)O)CC1
inactive: NCI-H226 > 100 µM | RPMI-8226 > 100 µM | A498 > 100 µM | UO-31 > 100 µM | SK-MEL-2 > 100 µM | A549 > 100 µM | SNB-75 > 100 µM | KM-20L2 > 100 µM | SK-MEL-5 > 100 µM | TK-10 > 100 µM | SNB-19 > 100 µM | ACHN > 100 µM | CAKI-1 > 100 µM | IGROV-1 > 100 µM | M14 > 100 µM | SNB-78 > 100 µM | NCI-H23 > 100 µM | 786-0 > 100 µM

COc1ccc(/C=C/C(=O)C(C)C)cc1
inactive: A498 35.5 µM | UO-31 80.2 µM | SK-MEL-2 27.7 µM | A549 69.2 µM | SNB-75 40.6 µM | KM-20L2 25.1 µM | SK-MEL-5 48.1 µM | TK-10 92 µM | SNB-19 46.7 µM | ACHN 50.9 µM | CAKI-1 44.8 µM | IGROV-1 > 100 µM | M14 28.3 µM | SNB-78 14.9 µM | NCI-H23 32.6 µM | 786-0 71.3 µM

O=C(CCCCCCCCCCc1ccccc1)C1=C(O)CC(O)CC1=O (stereo unspecified)
inactive: NCI-H226 24 µM | RPMI-8226 34.8 µM | UO-31 60.5 µM | SK-MEL-2 25.4 µM | A549 42.1 µM | SNB-75 > 100 µM | KM-20L2 55 µM | SK-MEL-5 48 µM | TK-10 64.6 µM | SNB-19 88.5 µM | ACHN 58.5 µM | CAKI-1 94.4 µM | IGROV-1 72.4 µM | M14 59.8 µM | SNB-78 > 100 µM | NCI-H23 56.4 µM | 786-0 58.1 µM

Nc1ncnc2c1ncn2C1CC(OC2CCCCO2)C(CO)O1 (stereo unspecified)
inactive: NCI-H226 > 100 µM | RPMI-8226 > 100 µM | A498 > 100 µM | UO-31 > 100 µM | SK-MEL-2 > 100 µM | A549 > 100 µM | KM-20L2 > 100 µM | TK-10 > 100 µM | SNB-19 > 100 µM | ACHN > 100 µM | IGROV-1 > 100 µM | M14 > 100 µM | SNB-78 > 100 µM | NCI-H23 > 100 µM | 786-0 > 100 µM

CN(C)CCNC(=O)c1cc([N+](=O)[O-])cc2ccc(-c3ccccc3)nc12
inactive: NCI-H226 3.27 µM | RPMI-8226 17.7 µM | A498 3.78 µM | UO-31 2.9 µM | SK-MEL-2 19.3 µM | A549 7.64 µM | SNB-75 5.64 µM | KM-20L2 6.46 µM | SK-MEL-5 4.7 µM | TK-10 22.2 µM | SNB-19 8.02 µM | ACHN 10.5 µM | CAKI-1 10 µM | IGROV-1 6.92 µM | M14 33.7 µM | SNB-78 17.8 µM | NCI-H23 7.67 µM | 786-0 16.4 µM

CC(=O)NC1=C(C)C(=O)c2c(nc3n2CCC3O)C1=N (stereo unspecified)
inactive: NCI-H226 17.4 µM | RPMI-8226 > 100 µM | A498 27.2 µM | UO-31 22.9 µM | SK-MEL-2 9.68 µM | A549 30.8 µM | SNB-75 26.2 µM | KM-20L2 19.5 µM | SK-MEL-5 13 µM | TK-10 29.9 µM | SNB-19 25.1 µM | ACHN 16.3 µM | CAKI-1 13.4 µM | IGROV-1 18.7 µM | SNB-78 3.05 µM | NCI-H23 14.8 µM | 786-0 18.6 µM

CCOc1cccc2c1N[S@@](=O)S2
inactive: NCI-H226 > 100 µM | RPMI-8226 98.2 µM | UO-31 98.4 µM | SK-MEL-2 > 100 µM | A549 > 100 µM | SNB-75 > 100 µM | KM-20L2 > 100 µM | TK-10 > 100 µM | SNB-19 59.2 µM | ACHN > 100 µM | CAKI-1 > 100 µM | IGROV-1 > 100 µM | M14 > 100 µM | SNB-78 > 100 µM | NCI-H23 > 100 µM | 786-0 > 100 µM
